Measurements as given in patent US20240174679A1, “HETEROAROYL AMIDES AS LRRK2 INHIBITORS, PHARMACEUTICAL COMPOSITIONS, AND USES THEREOF” (MERCK SHARP & DOHME LLC, priority 2021, published 2024).

molecular target: GST tagged truncated human mutant G2019S LRRK2 (Homo sapiens (Human), UniProt Q5S007, G2019S); assay: LRRK2 Km ATP LanthaScreen Assay; format: biochemical; details: 134 μM ATP (Km ATP), LRRKtide substrate, negative log of mean IC50 (molar)
Procedure: Unless otherwise noted, all reactions are magnetically stirred. Unless otherwise noted, when diethyl ether is used in the experiments described below, it is Fisher ACS certified material and is stabilized with BHT. Unless otherwise noted, “concentrated” and/or “solvent removed under reduced pressure” means evaporating the solvent from a solution or mixture using a rotary evaporator or vacuum pump. Unless otherwise noted, flash chromatography is carried out on a Teledyne Isco (Lincoln, NE), Analogix (Burlington, WI), or Biotage (Stockholm, SWE) automated chromatography system using a commercially available cartridge as the column. Columns may be purchased from Teledyne Isco, Analogix, Biotage, Varian (Palo Alto, CA), or Supelco (Bellefonte, PA) and are usually filled with silica gel as the stationary phase. Reversed phase preparative HPLC conditions, where used, can be found at the end of each experimental section. Aqueous solutions were concentrated on a Genevac (Ipswich, ENG) or by freeze-drying/lyophilization. Unless otherwise noted, all LRRK2 pIC50 data presented in tables refers to the LRRK2 G2019S Km ATP LanthaScreen™ assay (Life Technologies Corp., Carlsbad, CA) that is described in the Biological Assay section.
Biological Assay: LRRK2 Km ATP LanthaScreen™ Assay
Compound potency against LRRK2 kinase activity was determined using LanthaScreen™ technology from Life Technologies Corporation (Carlsbad, CA) using a GST20 tagged truncated human mutant G2019S LRRK2 in the presence of the fluorescein-labeled peptide substrate LRRKtide® (LRRK2 phosphorylated ezrin/radixin/moesin (ERM)), also from Life Technologies. The data presented for the Km ATP LanthaScreen™ Assay represents mean IC50 values based on several test results and may have reasonable deviations depending on the specific conditions and reagents used. Km is the Michaelis constant of an enzyme and is defined as the concentration of native substrate (ATP for a kinase) which permits the enzyme to achieve half Vmax (Vmax=rate of reaction when the enzyme is saturated with substrate). IC50 (half-maximal inhibitory concentration) represents the concentration of inhibitor required to inhibit LRRK2 kinase activity by 50%. Assays were performed in the presence of 134 μM ATP (Km ATP). Upon completion, the assay was stopped, and phosphorylated substrate detected with a terbium (Tb)-labeled anti-pERM antibody (cat. no. PV4898). The compound dose response was prepared by diluting a 10 mM stock of compound to a maximum concentration of 9.99 μM in 100% DMSO, followed by custom fold serial dilution in DMSO nine times. 20 nL of each dilution was spotted via a Labcyte Echo onto a 384-well black-sided plate (Corning 3575) followed by 15 μL of a 1.25 nM enzyme solution in 1× assay buffer (50 mM Tris pH 8.5, 10 mM MgCl2, 0.01% Brij-35, 1 mM EGTA, 2 mM dithiothreitol, 0.05 mM sodium orthovanadate). Following a 15-min incubation period at rt, the kinase reaction was started with the addition of 5 μL of 400 nM fluorescein-labeled LRRKtide® (LRRK2 phosphorylated ezrin/radixin/moesin (ERM)) peptide substrate and 134 μM ATP solution in 1× assay buffer. The reaction was allowed to progress at ambient temperature for 90 min. The reaction was then stopped by the addition of 20 μL of TR-FRET Dilution Buffer (Life Technologies, Carlsbad, CA) containing 2 nM Tb-labeled anti-phospho LRRKtide® (LRRK2 phosphorylated ezrin/radixin/moesin (ERM)) antibody and 10 mM EDTA (Life Technologies, Carlsbad, CA). After an incubation period of 1 h at rt, the plate was read on an EnVision® multimode plate reader (Perkin Elmer, Waltham, MA) with an excitation wavelength of 337 nm (Laser) and a reading emission at both 520 and 495 nm. Compound IC50 values were interpolated from nonlinear regression best-fits of the log of the final compound concentration, plotted as a function of the 520/495-nm emission ratio using activity base “Abase”). Abase uses a 4 parameter (4P) logistic fit based on the Levenberg-Marquardt algorithm. […]

GST tagged truncated human mutant G2019S LRRK2, sequence (Q5S007 970-2527 G2019S): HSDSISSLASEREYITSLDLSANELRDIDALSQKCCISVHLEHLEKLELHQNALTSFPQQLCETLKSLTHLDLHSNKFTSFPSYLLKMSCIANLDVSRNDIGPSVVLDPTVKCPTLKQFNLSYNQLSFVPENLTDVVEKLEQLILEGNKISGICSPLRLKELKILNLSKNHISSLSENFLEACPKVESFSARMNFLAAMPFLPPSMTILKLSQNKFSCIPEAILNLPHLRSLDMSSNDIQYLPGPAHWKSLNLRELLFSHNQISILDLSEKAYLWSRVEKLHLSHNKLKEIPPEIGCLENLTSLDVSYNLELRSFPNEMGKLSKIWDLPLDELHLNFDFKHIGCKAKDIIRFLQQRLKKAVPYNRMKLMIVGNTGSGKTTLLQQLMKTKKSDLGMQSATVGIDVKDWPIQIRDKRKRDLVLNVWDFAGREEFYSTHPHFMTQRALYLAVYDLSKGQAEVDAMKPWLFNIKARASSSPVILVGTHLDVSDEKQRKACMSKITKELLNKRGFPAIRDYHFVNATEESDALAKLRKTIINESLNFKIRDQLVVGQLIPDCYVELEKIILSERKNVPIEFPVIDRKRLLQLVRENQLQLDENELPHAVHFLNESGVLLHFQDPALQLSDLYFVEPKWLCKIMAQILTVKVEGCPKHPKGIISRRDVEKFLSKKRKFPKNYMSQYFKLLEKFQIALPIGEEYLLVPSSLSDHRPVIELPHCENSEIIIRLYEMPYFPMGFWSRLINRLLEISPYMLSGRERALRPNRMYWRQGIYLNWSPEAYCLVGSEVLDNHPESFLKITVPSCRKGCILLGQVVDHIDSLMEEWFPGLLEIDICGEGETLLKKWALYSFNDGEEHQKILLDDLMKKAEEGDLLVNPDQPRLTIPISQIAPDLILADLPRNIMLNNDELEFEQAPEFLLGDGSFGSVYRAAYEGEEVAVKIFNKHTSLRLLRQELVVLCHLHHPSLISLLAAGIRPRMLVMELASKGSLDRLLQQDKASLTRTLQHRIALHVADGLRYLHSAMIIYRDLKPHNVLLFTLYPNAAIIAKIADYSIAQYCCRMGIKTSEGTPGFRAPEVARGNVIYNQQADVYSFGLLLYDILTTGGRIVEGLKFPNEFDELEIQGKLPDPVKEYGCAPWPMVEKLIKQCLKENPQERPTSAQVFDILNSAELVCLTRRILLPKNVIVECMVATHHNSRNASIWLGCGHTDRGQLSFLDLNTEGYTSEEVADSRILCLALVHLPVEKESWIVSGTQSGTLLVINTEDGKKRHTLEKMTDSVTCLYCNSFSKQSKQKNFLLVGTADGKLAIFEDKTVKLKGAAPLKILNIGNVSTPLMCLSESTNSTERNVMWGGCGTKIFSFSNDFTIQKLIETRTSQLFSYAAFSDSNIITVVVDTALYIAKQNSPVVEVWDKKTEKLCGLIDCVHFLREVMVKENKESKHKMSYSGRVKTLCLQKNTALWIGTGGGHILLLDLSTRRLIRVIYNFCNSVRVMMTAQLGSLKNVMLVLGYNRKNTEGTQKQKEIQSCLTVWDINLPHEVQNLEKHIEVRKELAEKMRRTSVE

| SMILES | LRRK2 pIC50 |
| --- | --- |
| O=C(Nc1cnn(C2CCC2)c1)c1coc(-c2cn[nH]c2)n1 [Example 1-33, N-(1-cyclobutyl-1H-pyrazol-4-yl)-2-(1H-pyrazol-4-yl)-1,3-oxazole-4-carboxamide] | 7.13 |
| O=C(Nc1cnn(-c2ccncc2)c1)c1coc(-c2cn[nH]c2)n1 [Example 1-21, 2-(1H-pyrazol-4-yl)-N-(1-pyridin-4-yl-1H-pyrazol-4-yl)-1,3-oxazole-4-carboxamide] | 7.18 |
| O=C(Nc1cnn(C2CCOCC2)c1)c1csc(-c2cn[nH]c2)n1 [Example 7-10, 2-(1H-pyrazol-4-yl)-N-[1-(tetrahydro-2H-pyran-4-yl)-1H-pyrazol-4-yl]-1,3-thiazole-4-carboxamide] | 7.37 |
| N#CCn1cc(NC(=O)c2csc(-c3cn[nH]c3)n2)c(C(F)F)n1 [Example 7-27, N-[1-(cyanomethyl)-3-(difluoromethyl)-1H-pyrazol-4-yl]-2-(1H-pyrazol-4-yl)-1,3-thiazole-4-carboxamide] | 7.50 |
| O=C(Nc1cn(CC(F)F)nc1C(F)F)c1csc(-c2cn[nH]c2)n1 [Example 7-2, N-[1-(2,2-difluoroethyl)-3-(difluoromethyl)-1H-pyrazol-4-yl]-2-(1H-pyrazol-4-yl)-1,3-thiazole-4-carboxamide] | 7.58 |
| COc1cccc(C(=O)Nc2cnn(C3CCC3)c2)n1 [Example 4-10, N-(1-cyclobutyl-1H-pyrazol-4-yl)-6-methoxypyridine-2-carboxamide] | 5.35 |
| COCCn1cc(NC(=O)c2csc(-c3cn[nH]c3)n2)cn1 [Example 7-22, N-[1-(2-methoxyethyl)-1H-pyrazol-4-yl]-2-(1H-pyrazol-4-yl)-1,3-thiazole-4-carboxamide] | 7.00 |
| O=C(Nc1cnn(CC2CCCO2)c1)c1csc(-c2cn[nH]c2)n1 (stereo not drawn) [Example 7-13, 2-(1H-pyrazol-4-yl)-N-[1-(tetrahydrofuran-2-ylmethyl)-1H-pyrazol-4-yl]-1,3-thiazole-4-carboxamide] | 6.84 |
| O=C(Nc1cn(CC2CC2)nc1C(F)F)c1csc(-c2cn[nH]c2)n1 [Example 7-33, N-[1-(cyclopropylmethyl)-3-(difluoromethyl)-1H-pyrazol-4-yl]-2-(1H-pyrazol-4-yl)-1,3-thiazole-4-carboxamide] | 8.13 |
| O=C(Nc1cnn(C2CC2)c1)c1csc(-c2cn[nH]c2)n1 [Example 1-25, N-(1-cyclopropyl-1H-pyrazol-4-yl)-2-(1H-pyrazol-4-yl)-1,3-thiazole-4-carboxamide] | 7.65 |
| Cn1cc(NC(=O)c2csc(-c3cn[nH]c3)n2)c(C(F)F)n1 [Example 1-15, N-[3-(difluoromethyl)-1-methyl-1H-pyrazol-4-yl]-2-(1H-pyrazol-4-yl)-1,3-thiazole-4-carboxamide] | 7.79 |
| O=C(Nc1cnn(C2CCC2)c1)c1csc(-c2cnn3c2OCCC3)n1 [Example 9-21, N-(1-cyclobutyl-1H-pyrazol-4-yl)-2-(6,7-dihydro-5H-pyrazolo[5,1-b][1,3]oxazin-3-yl)-1,3-thiazole-4-carboxamide] | 8.08 |
| O=C(Nc1cnn(CC2CCC2)c1)c1cccc(-c2cnn(CCN3CCOCC3)c2)n1 [Example 9-35, N-[1-(cyclobutylmethyl)-1H-pyrazol-4-yl]-6-[1-(2-morpholin-4-ylethyl)-1H-pyrazol-4-yl]pyridine-2-carboxamide] | 5.32 |
| CCn1cc(-c2nc(C(=O)Nc3cn(CC(F)(F)F)nc3OC)cs2)cn1 [Example 12-4, 2-(1-ethyl-1H-pyrazol-4-yl)-N-[3-methoxy-1-(2,2,2-trifluoroethyl)-1H-pyrazol-4-yl]-1,3-thiazole-4-carboxamide] | 6.57 |
| Cn1cc(-c2cccc(C(=O)Nc3cnn(C4CCC4)c3)c2F)cn1 [Example 9-38, N-(1-cyclobutyl-1H-pyrazol-4-yl)-2-fluoro-3-(1-methyl-1H-pyrazol-4-yl)benzamide] | 7.10 |
